Each structure is given as a SMILES string. Where a name gives a salt, the structure may show the parent alone.

T2 sequence (P31652 whole entry): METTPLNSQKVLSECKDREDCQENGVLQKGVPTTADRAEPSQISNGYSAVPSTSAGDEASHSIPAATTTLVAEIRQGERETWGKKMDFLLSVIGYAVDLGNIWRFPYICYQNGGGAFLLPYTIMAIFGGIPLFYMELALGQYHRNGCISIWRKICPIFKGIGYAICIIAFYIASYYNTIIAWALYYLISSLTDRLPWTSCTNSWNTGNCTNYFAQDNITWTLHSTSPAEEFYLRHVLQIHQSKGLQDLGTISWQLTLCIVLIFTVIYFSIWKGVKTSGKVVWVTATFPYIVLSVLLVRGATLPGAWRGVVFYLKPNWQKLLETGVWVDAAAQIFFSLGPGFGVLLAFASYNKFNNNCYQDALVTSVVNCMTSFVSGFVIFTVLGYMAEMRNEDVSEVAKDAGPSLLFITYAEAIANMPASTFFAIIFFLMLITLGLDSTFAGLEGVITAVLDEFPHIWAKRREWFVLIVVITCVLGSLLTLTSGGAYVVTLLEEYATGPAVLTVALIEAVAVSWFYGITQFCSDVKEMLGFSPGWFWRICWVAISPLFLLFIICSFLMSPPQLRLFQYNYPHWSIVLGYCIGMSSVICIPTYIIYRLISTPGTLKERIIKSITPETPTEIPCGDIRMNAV

For the first data set, the target named is T1, 5-HT7 receptor (Homo sapiens, UniProt P34969).
T1 construct: expressed in transfected cells; host or cells: CHO cell culture
T1 sequence (P34969 whole entry): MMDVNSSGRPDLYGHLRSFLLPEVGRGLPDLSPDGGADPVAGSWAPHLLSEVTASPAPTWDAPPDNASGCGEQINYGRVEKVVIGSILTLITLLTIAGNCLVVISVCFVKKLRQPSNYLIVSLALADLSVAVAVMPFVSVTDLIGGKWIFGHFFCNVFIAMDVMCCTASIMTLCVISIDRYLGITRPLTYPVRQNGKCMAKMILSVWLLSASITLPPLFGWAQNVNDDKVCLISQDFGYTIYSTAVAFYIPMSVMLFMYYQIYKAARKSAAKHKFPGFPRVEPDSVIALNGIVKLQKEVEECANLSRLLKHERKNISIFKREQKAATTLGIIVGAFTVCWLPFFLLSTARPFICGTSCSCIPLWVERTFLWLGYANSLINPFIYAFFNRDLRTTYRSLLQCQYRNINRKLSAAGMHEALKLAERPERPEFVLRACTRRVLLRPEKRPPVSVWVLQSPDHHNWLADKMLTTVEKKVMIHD
Put plainly: 5-HT7 receptor binding (3H-LSD, CHO cell culture). As to conditions: ligand 3H-LSD, non-specific binding clozapine (25 μM), read-out: Inhibition of 5-HT7 receptor binding, IC50. As to the method: (§1) Human cloned receptors or frontal cortex preparations of male Wistar rats weighing 120-200 g were used for the experiments. The protein contents of membrane preparations were determined according to the method of Lowry (1951).
(§2) In the course of 5-HT7 receptor binding studies the applied tissue was CHO cell culture, the ligand was ^3H-LSD, and for the non-specific binding clozapine (25 μM) was used as ligand. In the serotonin uptake experiment cortex was used as tissue. As ligand tritiated serotonin, as non-specifically binding ligand fluoxetine (100 μM) was applied.
(§3) IC50 is the concentration where the difference between whole binding and non-specific binding in the presence of 10 μM serotonin creatinine sulfate is 50%. The compounds with an IC50 value smaller than 100 nmol were considered effective in this test.
On to `O=C1Nc2ccccc2C1CCCCN1CC=C(c2cccc(C(F)(F)F)c2)CC1` (centres unmarked) [Example 5, 3-{4-[4-(3-Trifluoromethyl-phenyl)-1,2,3,6-tetrahydropyridin-1-yl]-butyl}-1,3-dihydro-2H-indol-2-one monooxalate], for which the IC50 is less than 100 nM. Turning to `O=C1Nc2ccccc2C1CCCCN1CCc2sccc2C1` (centres unmarked) [Example 6, 3-[4-(6,7-Dihydro-4H-thieno[3,2-c]pyridin-5-yl)-butyl]-1,3-dihydro-2H-indol-2-one monooxalate], the concentration for half-maximal inhibition (IC50) is less than 100 nM.

For `O=C1Nc2ccc(F)cc2C1CCCCN1CCc2sccc2C1` (centres unmarked) [Example 7, 3-[4-(6,7-Dihydro-4H-thieno[3,2-c]pyridin-5-yl)-butyl]-5-fluoro-1,3-dihydro-2H-indol-2-one monohydrochloride], the IC50 is less than 100 nM. Consider `O=C1Nc2ccccc2C1CCCCN1CCc2sc(Cl)cc2C1` (centres unmarked) [Example 8, 3-[4-(2-Chloro-6,7-dihydro-4H-thieno[3,2-c]-pyridin-5-yl)-butyl]-1,3-dihydro-2H-indol-2-one monohydrochloride], for which the IC50 was less than 100 nM. Consider `O=C1Nc2cc(F)ccc2C1CCCCN1CCc2sccc2C1` (centres unmarked) [Example 9, 3-[4-(6,7-Dihydro-4H-thieno[3,2-c]pyridin-5-yl)-butyl]-6-fluoro-1,3-dihydro-2H-indol-2-one mono-hydrochloride], for which the half-inhibitory concentration (IC50) was less than 100 nM. Regarding `O=C1Nc2cc(F)ccc2C1CCCCN1CCc2sc(Cl)cc2C1` (centres unmarked) [Example 10, 3-[4-(2-Chloro-6,7-dihydro-4H-thieno[3,2-c]-pyridin-5-yl)-butyl]-6-fluoro-1,3-dihydro-2H-indol-2-one monohydrochloride], the IC50 was less than 100 nM. For the molecule `O=C1Nc2ccc(F)cc2C1CCCCN1CCc2sc(Cl)cc2C1` (centres unmarked) [Example 11, 3-[4-(2-Chloro-6,7-dihydro-4H-thieno[3,2-c]-pyridin-5-yl)-butyl]-5-fluoro-1,3-dihydro-2H-indol-2-one monohydrochloride], the half-inhibitory concentration (IC50) is less than 100 nM. As for `O=C1Nc2cc(F)ccc2C1CCCCN1CC=C(c2cccc(C(F)(F)F)c2)CC1` (centres unmarked) [Example 12, 6-Fluoro-3-{4-[4-(3-trifluoromethyl-phenyl)-1,2,3,6-tetrahydropyridin-1-yl]-butyl}-1,3-dihydro-2H-indol-2-one monohydrochloride], the IC50 is less than 100 nM.

As for `O=C1Nc2ccccc2C1CCCCN1CC=C(c2ccc(Cl)cc2)CC1` (centres unmarked) [Example 13, 3-{4-[4-(4-Chlorophenyl)-1,2,3,6-tetrahydro-pyridin-1-yl]-butyl}-1,3-dihydro-2H-indol-2-one], the IC50 is less than 100 nM.

Regarding `O=C1Nc2ccc(F)cc2C1CCCCN1CC=C(c2cccc(C(F)(F)F)c2)CC1` (centres unmarked) [Example 14, 5-Fluoro-3-{4-[4-(3-trifluoromethyl-phenyl)-1,2,3,6-tetrahydropyridin-1-yl]-butyl}-1,3-dihydro-2H-indol-2-one monohydrochloride], the IC50 is less than 100 nM.

System in a further data set: not given
Assay: not given
Conditions: not given
As to `O=C1Nc2ccccc2C1CCCCN1CC=C(c2ccccc2)CC1` (centres unmarked), the melting point was in the range of 121 to 126 °C.

As for `O=C1Nc2ccc(F)cc2C1CCCCN1CCc2sccc2C1` (centres unmarked) (as salt: hydrochloride) [Example 7, 3-[4-(6,7-Dihydro-4H-thieno[3,2-c]pyridin-5-yl)-butyl]-5-fluoro-1,3-dihydro-2H-indol-2-one monohydrochloride], the melting point was in the range of 192 to 194 °C. Take `O=C1Nc2ccccc2C1CCCCN1CCc2sc(Cl)cc2C1` (centres unmarked) (as salt: hydrochloride) [Example 8, 3-[4-(2-Chloro-6,7-dihydro-4H-thieno[3,2-c]-pyridin-5-yl)-butyl]-1,3-dihydro-2H-indol-2-one monohydrochloride]: the melting point is 103 to 106 °C.

For the molecule `O=C1Nc2cc(F)ccc2C1CCCCN1CCc2sccc2C1` (centres unmarked) (as salt: hydrochloride) [Example 9, 3-[4-(6,7-Dihydro-4H-thieno[3,2-c]pyridin-5-yl)-butyl]-6-fluoro-1,3-dihydro-2H-indol-2-one mono-hydrochloride], the melting point is 194 to 197 °C.

Molecule `O=C1Nc2cc(F)ccc2C1CCCCN1CCc2sc(Cl)cc2C1` (centres unmarked) (as salt: hydrochloride) [Example 10, 3-[4-(2-Chloro-6,7-dihydro-4H-thieno[3,2-c]-pyridin-5-yl)-butyl]-6-fluoro-1,3-dihydro-2H-indol-2-one monohydrochloride] registered a melting point of 214 to 216 °C. For `O=C1Nc2ccc(F)cc2C1CCCCN1CCc2sc(Cl)cc2C1` (centres unmarked) (as salt: hydrochloride) [Example 11, 3-[4-(2-Chloro-6,7-dihydro-4H-thieno[3,2-c]-pyridin-5-yl)-butyl]-5-fluoro-1,3-dihydro-2H-indol-2-one monohydrochloride], the melting point lay within 161 to 163 °C.

`O=C1Nc2cc(F)ccc2C1CCCCN1CC=C(c2cccc(C(F)(F)F)c2)CC1` (centres unmarked) (as salt: hydrochloride) [Example 12, 6-Fluoro-3-{4-[4-(3-trifluoromethyl-phenyl)-1,2,3,6-tetrahydropyridin-1-yl]-butyl}-1,3-dihydro-2H-indol-2-one monohydrochloride] gave a melting point of 203 to 205 °C.

As for `O=C1Nc2ccc(F)cc2C1CCCCN1CC=C(c2cccc(C(F)(F)F)c2)CC1` (centres unmarked) (as salt: hydrochloride) [Example 14, 5-Fluoro-3-{4-[4-(3-trifluoromethyl-phenyl)-1,2,3,6-tetrahydropyridin-1-yl]-butyl}-1,3-dihydro-2H-indol-2-one monohydrochloride], the melting point lay within 201 to 204 °C. Consider `O=C1Nc2ccccc2C1CCCCN1CC=C(c2cccc(C(F)(F)F)c2)CC1` (centres unmarked) (as salt: oxalate) [Example 5, 3-{4-[4-(3-Trifluoromethyl-phenyl)-1,2,3,6-tetrahydropyridin-1-yl]-butyl}-1,3-dihydro-2H-indol-2-one monooxalate], for which the melting point lay within 159 to 161 °C. Same read-out and setting: the same measure for `O=C1Nc2ccccc2C1CCCCN1CCc2sccc2C1` (centres unmarked) (as salt: oxalate) [Example 6, 3-[4-(6,7-Dihydro-4H-thieno[3,2-c]pyridin-5-yl)-butyl]-1,3-dihydro-2H-indol-2-one monooxalate]: 168 to 170 °C. For `O=C1Nc2ccccc2C1CCCCN1CC=C(c2ccc(Cl)cc2)CC1` (centres unmarked) [Example 13, 3-{4-[4-(4-Chlorophenyl)-1,2,3,6-tetrahydro-pyridin-1-yl]-butyl}-1,3-dihydro-2H-indol-2-one], the melting point lay in the range of 122 to 124 °C.

Another data set addresses T2, 5-HT uptake (Rattus norvegicus, UniProt P31652).
T2 construct: In the serotonin uptake experiment cortex was used as tissue; from tissue; host or cells: frontal cortex of male Wistar rats
The experiment in a line: Serotonin uptake experiment (tritiated serotonin, cortex). The class given is biochemical. To be noted: cortex tissue; ligand tritiated serotonin; non-specific ligand fluoxetine (100 μM); read-out: Inhibition of 5-HT uptake, IC50. The method, then:
as §1, §2, §3
For `O=C1Nc2ccccc2C1CCCCN1CC=C(c2ccc(Cl)cc2)CC1` (centres unmarked) [Example 13, 3-{4-[4-(4-Chlorophenyl)-1,2,3,6-tetrahydro-pyridin-1-yl]-butyl}-1,3-dihydro-2H-indol-2-one], the concentration for half-maximal inhibition (IC50) is less than 100 nM. For the molecule `O=C1Nc2ccc(F)cc2C1CCCCN1CC=C(c2cccc(C(F)(F)F)c2)CC1` (centres unmarked) [Example 14, 5-Fluoro-3-{4-[4-(3-trifluoromethyl-phenyl)-1,2,3,6-tetrahydropyridin-1-yl]-butyl}-1,3-dihydro-2H-indol-2-one monohydrochloride], the IC50 was less than 100 nM.
